From patent US20200190081A1, “META SUBSTITUTED PHENYLPYRAZOLO- AND PHENYLPYRROLO- PYRIDAZINE DERIVATIVES HAVING MULTIMODAL ACTIVITY AGAINST PAIN” (ESTEVE PHARMACEUTICALS, S.A., priority 2016, published 2020)

Experiments:
[1] = molecular target: Human α2δ-1 Subunit of Cav2.2 Calcium Channel (Homo sapiens, UniProt P54289); experiment: Human α2δ-1 subunit of Cav2.2 calcium channel assay, [3H]-Gabapentin binding; settings: human α2δ-1 enriched membranes, 15 nM [3H]-Gabapentin
Procedure: Human α2δ-1 Subunit of Cav2.2 Calcium Channel Assay
Human α2δ-1 enriched membranes (2.5 μg) were incubated with 15 nM of radiolabeled [3H]-Gabapentin in assay buffer containing Hepes-KOH 10 mM, pH 7.4. NSB (non specific binding) was measured by adding 10 μM pregabalin. The binding of the test compound was measured at five different concentrations. After 60 min incubation at 27° C., binding reaction was terminated by filtering through Multiscreen GF/C (Millipore) presoaked in 0.5% polyethyleneimine in Vacuum Manifold Station, followed by 3 washes with ice-cold filtration buffer containing 50 mM Tris-HCl, pH 7.4. Filter plates were dried at 60° C. for 1 hour and 30 μl of scintillation cocktail were added to each well before radioactivity reading. Readings were performed in a Trilux 1450 Microbeta radioactive counter (Perkin Elmer).

[2] = molecular target: Human norepinephrine transporter (NET) (Homo sapiens, UniProt P23975); experiment: Binding assay to human norepinephrine transporter (NET), [3H]-Nisoxetin; settings: human NET enriched membranes, 5 nM [3H]-Nisoxetin
Chain of Human norepinephrine transporter (NET) (P23975 whole entry): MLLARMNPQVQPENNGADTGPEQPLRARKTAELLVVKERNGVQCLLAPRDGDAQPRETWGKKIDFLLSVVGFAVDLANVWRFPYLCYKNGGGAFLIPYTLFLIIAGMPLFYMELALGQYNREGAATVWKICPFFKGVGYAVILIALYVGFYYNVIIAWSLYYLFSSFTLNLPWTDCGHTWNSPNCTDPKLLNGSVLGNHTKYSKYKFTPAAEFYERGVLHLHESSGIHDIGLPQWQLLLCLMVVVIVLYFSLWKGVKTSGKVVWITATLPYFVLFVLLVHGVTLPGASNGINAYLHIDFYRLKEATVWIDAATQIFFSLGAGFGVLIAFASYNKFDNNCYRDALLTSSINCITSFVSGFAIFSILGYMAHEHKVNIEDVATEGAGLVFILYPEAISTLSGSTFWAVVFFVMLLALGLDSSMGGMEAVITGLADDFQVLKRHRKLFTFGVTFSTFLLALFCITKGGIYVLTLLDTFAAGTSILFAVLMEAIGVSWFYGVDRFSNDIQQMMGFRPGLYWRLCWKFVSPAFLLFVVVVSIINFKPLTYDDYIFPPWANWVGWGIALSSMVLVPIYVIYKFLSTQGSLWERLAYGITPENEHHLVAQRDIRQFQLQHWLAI
Procedure: Binding Assay to Human Norepinephrine Transporter (NET).
Human norepinephrine transporter (NET) enriched membranes (5 μg) were incubated with 5 nM of radiolabeled [3H]-Nisoxetin in assay buffer containing 50 mM Tris-HCl, 120 mM NaCl, 5 mM KCl, pH 7.4. NSB (non specific binding) was measured by adding 10 μM of desipramine. The binding of the test compound was measured at five different concentrations. After 60 min incubation at 4° C., binding reaction was terminated by filtering through Multiscreen GF/C (Millipore) presoaked in 0.5% polyethyleneimine in Vacuum Manifold Station, followed by 3 washes with ice-cold filtration buffer containing 50 mM Tris-HCl, 0.9% NaCl, pH 7.4. Filter plates were dried at 60° C. for 1 hour and 30 μl of scintillation cocktail were added to each well before radioactivity reading. Readings were performed in a Trilux 1450 Microbeta radioactive counter (Perkin Elmer).

Chain of Human α2δ-1 Subunit of Cav2.2 Calcium Channel (P54289 25-1103): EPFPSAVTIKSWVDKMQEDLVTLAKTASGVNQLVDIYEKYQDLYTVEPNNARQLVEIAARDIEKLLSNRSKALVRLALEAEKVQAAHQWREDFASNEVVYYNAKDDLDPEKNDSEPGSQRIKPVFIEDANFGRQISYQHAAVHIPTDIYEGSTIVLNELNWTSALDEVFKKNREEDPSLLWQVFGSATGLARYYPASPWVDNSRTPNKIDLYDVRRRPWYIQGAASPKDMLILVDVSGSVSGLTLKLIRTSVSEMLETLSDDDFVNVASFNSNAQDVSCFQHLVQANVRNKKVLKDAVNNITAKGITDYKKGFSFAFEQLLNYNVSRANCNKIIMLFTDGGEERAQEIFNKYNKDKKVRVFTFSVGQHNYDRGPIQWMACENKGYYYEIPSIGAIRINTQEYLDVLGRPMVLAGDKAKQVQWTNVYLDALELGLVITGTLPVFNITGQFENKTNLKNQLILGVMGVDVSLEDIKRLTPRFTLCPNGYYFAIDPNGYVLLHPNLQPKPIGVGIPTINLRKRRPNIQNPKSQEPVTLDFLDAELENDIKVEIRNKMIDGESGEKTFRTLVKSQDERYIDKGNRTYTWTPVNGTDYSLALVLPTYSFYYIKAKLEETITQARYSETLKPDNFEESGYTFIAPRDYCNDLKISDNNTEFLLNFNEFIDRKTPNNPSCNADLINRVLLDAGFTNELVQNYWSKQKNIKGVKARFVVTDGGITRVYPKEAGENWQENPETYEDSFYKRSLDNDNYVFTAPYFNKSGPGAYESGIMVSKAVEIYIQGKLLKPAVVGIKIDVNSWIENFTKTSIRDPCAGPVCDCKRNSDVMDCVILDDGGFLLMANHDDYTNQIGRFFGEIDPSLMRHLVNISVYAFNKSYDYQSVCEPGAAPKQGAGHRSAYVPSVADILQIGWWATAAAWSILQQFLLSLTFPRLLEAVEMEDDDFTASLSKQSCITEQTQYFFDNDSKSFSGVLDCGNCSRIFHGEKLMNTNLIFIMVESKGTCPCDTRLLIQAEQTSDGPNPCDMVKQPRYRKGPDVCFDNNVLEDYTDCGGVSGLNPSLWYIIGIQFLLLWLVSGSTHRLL

SMILES	Ki [1]	Ki [2]
Cc1nnc(N(C)C)c2nn(-c3cccc(OC(CCN)c4ccccc4F)c3)c(C)c12 (centres unmarked) [Example 19, 2-(3-(3-amino-1-(2-fluorophenyl)propoxy)phenyl)-N,N,3,4-tetramethyl-2H-pyrazolo[3,4-d]pyridazin-7-amine]	500 to 5000 nM	100 to 500 nM
Cc1nnc(N(C)C)c2nn(-c3cccc(OC(CCNCC(F)F)c4ccccc4)c3)c(C)c12 (centres unmarked) [Example 55, 2-(3-(3-((2,2-difluoroethyl)amino)-1-phenylpropoxy)phenyl)-N,N,3,4-tetramethyl-2H-pyrazolo[3,4-d]pyridazin-7-amine]	500 to 5000 nM	500 to 1000 nM
CNCC[C@@H](Oc1cccc(-n2nc3c(N(C)C)nnc(C)c3c2C)c1)c1cccnc1 [Example 65, (R)-N,N,3,4-tetramethyl-2-(3-(3-(methylamino)-1-(pyridin-3-yl)propoxy)phenyl)-2H-pyrazolo[3,4-d]pyridazin-7-amine]	500 to 5000 nM	500 to 1000 nM
Cc1nnc(N(C)C)c2nn(-c3cccc(OCC4CCNCC4)c3)c(C)c12 [Example 29, N,N,3,4-tetramethyl-2-(3-(piperidin-4-ylmethoxy)phenyl)-2H-pyrazolo[3,4-d]pyridazin-7-amine]	≥ 5000 nM	≥ 1000 nM
CNCCC(Oc1cccc(-n2nc3c(N(C)C)nnc(C)c3c2C)c1)c1nccs1 (centres unmarked) [Example 34, N,N,3,4-Tetramethyl-2-(3-(3-(methylamino)-1-(thiazol-2-yl)propoxy)phenyl)-2H-pyrazolo[3,4-d]pyridazin-7-amine]	< 500 nM	≥ 1000 nM
CNCCC(Cc1ccccc1)Oc1cccc(-n2nc3c(N(C)C)nnc(C)c3c2C)c1 (centres unmarked) [Example 38, N,N,3,4-tetramethyl-2-(3-((4-(methylamino)-1-phenylbutan-2-yl)oxy)phenyl)-2H-pyrazolo[3,4-d]pyridazin-7-amine]	500 to 5000 nM	100 to 500 nM
CNC(COc1cccc(-n2nc3c(N(C)C)nnc(C)c3c2C)c1)Cc1ccccc1 (centres unmarked) [Example 47, N,N,3,4-tetramethyl-2-(3-(2-(methylamino)-3-phenylpropoxy)phenyl)-2H-pyrazolo[3,4-d]pyridazin-7-amine]	< 500 nM	< 100 nM
CNCCC(Oc1cccc(-n2nc3c(N(C)C)nnc(C)c3c2C)c1)c1ccc(OC(F)(F)F)cc1 (centres unmarked) [Example 46, N,N,3,4-tetramethyl-2-(3-(3-(methylamino)-1-(4-(trifluoromethoxy)phenyl)propoxy)phenyl)-2H-pyrazolo[3,4-d]pyridazin-7-amine]	500 to 5000 nM	100 to 500 nM
Cc1nnc(N(C)C)c2nn(-c3cccc(O[C@H](c4ccccc4)[C@@H]4CNCCO4)c3)c(C)c12 (racemic) [Example 12, N,N,3,4-tetramethyl-2-(3-((R)-((S)-morpholin-2-yl)(phenyl)methoxy)phenyl)-2H-pyrazolo[3,4-d]pyridazin-7-amine]	500 to 5000 nM	100 to 500 nM
CNCC[C@@H](Oc1cccc(-n2nc3c(N(C)C)nnc(C)c3c2C)c1)c1ccccc1 [Example 59, (R)-N,N,3,4-tetramethyl-2-(3-(3-(methylamino)-1-phenylpropoxy)phenyl)-2H-pyrazolo[3,4-d]pyridazin-7-amine]	500 to 5000 nM	100 to 500 nM
CNCCC(Oc1cccc(-n2nc3c(N(C)C)nnc(C)c3c2C)c1)c1ccc(C(N)=O)cc1 (centres unmarked) [Example 57, 4-(1-(3-(7-(dimethylamino)-3,4-dimethyl-2H-pyrazolo[3,4-d]pyridazin-2-yl)phenoxy)-3-(methylamino)propyl)benzamide]	500 to 5000 nM	100 to 500 nM
CNCCC(Oc1cccc(-n2nc3c(N(C)C)nnc(C)c3c2C)c1)c1ccc(F)cc1 (centres unmarked) [Example 8, 2-(3-(1-(4-fluorophenyl)-3-(methylamino)propoxy)phenyl)-N,N,3,4-tetramethyl-2H-pyrazolo[3,4-d]pyridazin-7-amine]	500 to 5000 nM	< 100 nM
Cc1nnc(N)c2nn(-c3cccc(OC(CCN)c4ccccc4F)c3)c(C)c12 (centres unmarked) [Example 28, 2-(3-(3-amino-1-(2-fluorophenyl)propoxy)phenyl)-3,4-dimethyl-2H-pyrazolo[3,4-d]pyridazin-7-amine]	500 to 5000 nM	500 to 1000 nM
CNCCC(Oc1cccc(-n2nc3c(NC)nnc(C)c3c2C)c1)c1ccccc1F (centres unmarked) [Example 22, 2-(3-(1-(2-fluorophenyl)-3-(methylamino)propoxy)phenyl)-N,3,4-trimethyl-2H-pyrazolo[3,4-d]pyridazin-7-amine]	500 to 5000 nM	< 100 nM
CCNCCC(Oc1cccc(-n2nc3c(N(C)C)nnc(C)c3c2C)c1)c1ccccc1 (centres unmarked) [Example 3, 2-(3-(3-(ethylamino)-1-phenylpropoxy)phenyl)-N,N,3,4-tetramethyl-2H-pyrazolo[3,4-d]pyridazin-7-amine]	500 to 5000 nM	100 to 500 nM
CNCC[C@@H](Oc1cccc(-n2nc3c(N(C)C)nnc(C)c3c2C)c1)c1ccccc1F [Example 62, (R)-2-(3-(1-(2-Fluorophenyl)-3-(methylamino)propoxy)phenyl)-N,N,3,4-tetramethyl-2H-pyrazolo[3,4-d]pyridazin-7-amine]	500 to 5000 nM	< 100 nM
Cc1nnc(N(C)C)c2nn(-c3cccc(OC(CCN)c4ccc(F)cc4)c3)c(C)c12 (centres unmarked) [Example 20, 2-(3-(3-amino-1-(4-fluorophenyl)propoxy)phenyl)-N,N,3,4-tetramethyl-2H-pyrazolo[3,4-d]pyridazin-7-amine]	500 to 5000 nM	100 to 500 nM
Cc1nnc(N(C)C)c2nn(-c3cccc(OC(CN(C)C)c4cccnc4)c3)c(C)c12 (centres unmarked) [Example 52, 2-(3-(2-(Dimethylamino)-1-(pyridin-3-yl)ethoxy)phenyl)-N,N,3,4-tetramethyl-2H-pyrazolo[3,4-d]pyridazin-7-amine]	500 to 5000 nM	≥ 1000 nM
CNCC(Oc1cccc(-n2nc3c(N(C)C)nnc(C)c3c2C)c1)c1cccc(F)c1 (centres unmarked) [Example 43, 2-(3-(1-(3-fluorophenyl)-2-(methylamino)ethoxy)phenyl)-N,N,3,4-tetramethyl-2H-pyrazolo[3,4-d]pyridazin-7-amine]	500 to 5000 nM	< 100 nM
CNCCC(Oc1cccc(-n2nc3c(NC)nnc(C)c3c2C)c1)c1ccccc1 (centres unmarked) [Example 25, N,3,4-trimethyl-2-(3-(3-(methylamino)-1-phenylpropoxy)phenyl)-2H-pyrazolo[3,4-d]pyridazin-7-amine]	500 to 5000 nM	100 to 500 nM
CNCC[C@H](Oc1cccc(-n2c(C)c3c(C)nnc(C)c3c2C)c1)c1cccc(F)c1 [Example 68, (S)-3-(3-Fluorophenyl)-N-methyl-3-(3-(1,4,5,7-tetramethyl-6H-pyrrolo[3,4-d]pyridazin-6-yl)phenoxy)propan-1-amine]	≥ 5000 nM	100 to 500 nM
CNCCC(Oc1cccc(-n2nc3c(N(C)C)nnc(C)c3c2C)c1)c1cccc(C(N)=O)c1 (centres unmarked) [Example 56, 3-(1-(3-(7-(Dimethylamino)-3,4-dimethyl-2H-pyrazolo[3,4-d]pyridazin-2-yl)phenoxy)-3-(methylamino)propyl)benzamide]	500 to 5000 nM	100 to 500 nM
CNc1nnc(C)c2c(C)n(-c3cccc(OC(CCN)c4ccccc4)c3)nc12 (centres unmarked) [Example 24, 2-(3-(3-amino-1-phenylpropoxy)phenyl)-N,3,4-trimethyl-2H-pyrazolo[3,4-d]pyridazin-7-amine]	500 to 5000 nM	500 to 1000 nM
Cc1nnc(N(C)C)c2nn(-c3cccc(OC(Cc4ccccc4)CN(C)Cc4ccccc4)c3)c(C)c12 (centres unmarked) [Example 44, 2-(3-((1-(benzyl(methyl)amino)-3-phenylpropan-2-yl)oxy)phenyl)-N,N,3,4-tetramethyl-2H-pyrazolo[3,4-d]pyridazin-7-amine]	≥ 5000 nM	≥ 1000 nM
CNCCC(Oc1cccc(-n2c(C)c3c(C)nnc(C)c3c2C)c1)c1ccccc1F (centres unmarked) [Example 66, 3-(2-fluorophenyl)-N-methyl-3-(3-(1,4,5,7-tetramethyl-6H-pyrrolo[3,4-d]pyridazin-6-yl)phenoxy)propan-1-amine]	500 to 5000 nM	500 to 1000 nM
CNCC(Oc1cccc(-n2nc3c(N(C)C)nnc(C)c3c2C)c1)c1cccnc1 (centres unmarked) [Example 45, N,N,3,4-tetramethyl-2-(3-(2-(methylamino)-1-(pyridin-3-yl)ethoxy)phenyl)-2H-pyrazolo[3,4-d]pyridazin-7-amine]	500 to 5000 nM	≥ 1000 nM
CNCCC(Oc1cccc(-n2nc3c(N(C)C)nnc(C)c3c2C)c1)c1cncs1 (centres unmarked) [Example 48, N,N,3,4-tetramethyl-2-(3-(3-(methylamino)-1-(thiazol-5-yl)propoxy)phenyl)-2H-pyrazolo[3,4-d]pyridazin-7-amine]	< 500 nM	500 to 1000 nM
Cc1nnc(N(C)C)c2nn(-c3cccc(OC4CNCc5ccccc54)c3)c(C)c12 (centres unmarked) [Example 16, N,N,3,4-tetramethyl-2-(3-((1,2,3,4-tetrahydroisoquinolin-4-yl)oxy)phenyl)-2H-pyrazolo[3,4-d]pyridazin-7-amine]	500 to 5000 nM	≥ 1000 nM
